Data published in patent publication US20020183313A1, “1,4-benzodiazepinones and their uses as CCK antagonists” (Fujisawa Pharmaceutical Co., Ltd., priority 1996, published 2002).
One block for each compound: values may come before it.

SMILES: Cc1cccc(NC(=O)NC2N=C(CC(C)C)c3cccc(C)c3N(CC(=O)N3CCCCCCC3)C2=O)c1 (racemic) [Example 69, N-[(3RS)-1-(Azacyclooctan-1-yl)carbonylmethyl-2,3-dihydro-5-isobutyl-9-methyl-2-oxo-1H-1,4-benzodiazepin-3-yl]-N′-(3-methylphenyl)urea]
melting point: 131.6 to 133.4 °C

SMILES: CC(=O)c1ccccc1CN1C(=O)C(NC(=O)Nc2cccc(-c3nnn[nH]3)c2)N=C(C2CCCCC2)c2cccc(C)c21 (racemic) [Example 51, N-[(3RS)-1-(2-acetylbenzyl)-5-cyclohexyl-2,3-dihydro-9-methyl-2-oxo-1H-1,4-benzodiazepin-3-yl]-N′-[3-(tetrazol-5-yl)phenyl]urea]
melting point: 199 to 208 °C

SMILES: Cc1cccc(NC(=O)NC2N=C(C3CCCCC3)c3cccc(C)c3N(CC(=O)N3CCCCCCC3)C2=O)c1 (racemic) [Example 70, N-[(3RS)-1-(Azacyclooctan-1-yl)carbonylmethyl-5-cyclohexyl-2,3-dihydro-9-methyl-2-oxo-1H-1,4-benzodiazepin-3-yl]-N′-(3-methylphenyl)urea]
melting point: 153.6 to 155.3 °C

SMILES: CC(=O)CN1C(=O)C(NC(=O)Nc2cccc(C)c2)N=C(C)c2cccc(C)c21 (racemic) [Example 46, N-[(3RS)-2,3-Dihydro-5,9-dimethyl-1-methylcarbonylmethyl-2-oxo-1H-1,4-benzodiazepin-3-yl]-N′-(3-methylphenyl)urea]
melting point: 126.1 to 127.7 °C

SMILES: CC1=NC(NC(=O)Nc2cccc(C)c2)C(=O)N(CC(=O)N2CCC(N3CCCCC3)CC2)c2c(C)cccc21 (racemic) [48-3(1), N-[(3RS)-1-[4-(Piperidino)piperidin-1-yl]carbonylmethyl-5,9-dimethyl-2,3-dihydro-2-oxo-1H-1,4-benzodiazepin-3-yl]-N′-(3-methylphenyl)urea]
melting point: 214.5 to 217.3 °C

SMILES: Cc1ccccc1C(=O)CN1C(=O)C(NC(=O)Nc2cccc(-c3nnn[nH]3)c2)N=C(c2ccccc2F)c2cccc(C)c21 (racemic)
melting point: 215.8 to 220.3 °C

SMILES: Cc1cccc(NC(=O)NC2N=C(CN(C)C)c3cccc(C)c3N(CC(=O)N3CCCCCCC3)C2=O)c1 (racemic) [71-3(1), N-[(3RS)-1-(azacyclooctan-1-yl)carbonylmethyl-2,3-dihydro-5-(N,N-dimethylamino)methyl-9-methyl-2-oxo-1H-1,4-benzodiazepin-3-yl]-N′-(3-methylphenyl)urea]
melting point: 147.9 to 149.1 °C

SMILES: Cc1cccc(NC(=O)NC2N=C(CN3CC4CCC(CC4)C3)c3cccc(C)c3N(C)C2=O)c1 (racemic)
melting point: 145.6 to 149.2 °C

SMILES: Cc1cccc2c1N(CC(=O)C1CC1)C(=O)C(NC(=O)Nc1cccc(-c3nnn[nH]3)c1)N=C2C1CCCCC1 (racemic) [Example 47, N-[(3RS)-5-Cyclohexyl-1-cyclopropylcarbonylmethyl-2,3-dihydro-9-methyl-2-oxo-1H-1,4-benzodiazepin-3-yl]-N′-[3-(tetrazol-5-yl)phenyl]urea]
melting point: 227.1 to 233.2 °C

SMILES: Cc1cccc2c1N(CC(=O)c1ccccc1OCC(=O)O)C(=O)C(NC(=O)Nc1cccc(-c3nnn[nH]3)c1)N=C2c1ccccc1F (racemic)
melting point: 109.6 to 113 °C

SMILES: Cc1cccc2c1N(CC(=O)c1cccc([N+](=O)[O-])c1)C(=O)C(NC(=O)Nc1cccc(-c3nnn[nH]3)c1)N=C2c1ccccc1F (racemic)
melting point: 194.4 to 198.1 °C

SMILES: CC(=O)c1sccc1CN1C(=O)C(NC(=O)Nc2cccc(C)c2)N=C(C(C)C)c2ccccc21 (racemic) [Example 2, N-[(3RS)-1-(2-acetylthiophen-3-yl)methyl-2,3-dihydro-5-isopropyl-2-oxo-1H-1,4-benzodiazepin-3-yl]-N′-(3-methylphenyl)urea]
melting point: 219 to 221 °C (dec.)

SMILES: Cc1cccc2c1N(CC(=O)c1ccccc1[N+](=O)[O-])C(=O)C(NC(=O)Nc1cccc(-c3nnn[nH]3)c1)N=C2c1ccccc1F (racemic)
melting point: 192.2 to 197.1 °C

SMILES: CCC(=O)CN1C(=O)C(NC(=O)Nc2cccc(C)c2)N=C(C)c2cccc(C)c21 (racemic) [Example 44, N-[(3RS)-2,3-Dihydro-1-ethylcarbonylmethyl-5,9-dimethyl-2-oxo-1H-1,4-benzodiazepin-3-yl]-N′-(3-methylphenyl)urea]
melting point: 125.1 to 127.5 °C

SMILES: CC(C)C1=NC(NC(=O)NC2CCCCC2)C(=O)N(CC(=O)N2CC3CCC(CC3)C2)c2ccccc21 (racemic)
melting point: 138 to 140 °C

SMILES: Cc1cccc2c1N(Cc1ccccn1)C(=O)C(NC(=O)Nc1cccc(-c3nnn[nH]3)c1)N=C2c1ccccc1F (racemic)
melting point: 173.9 to 182 °C

SMILES: Cc1cccc2c1N(CC(=O)c1ccccc1O)C(=O)C(NC(=O)Nc1cccc(-c3nnnn3C(c3ccccc3)(c3ccccc3)c3ccccc3)c1)N=C2c1ccccc1F (racemic)
melting point: 132.1 to 146 °C

SMILES: CC1=NC(NC(=O)Nc2cccc(C)c2)C(=O)N(CC(=O)N2CCN(CCO)CC2)c2c(C)cccc21 (racemic) [48-3(14), N-[(3RS)-2,3-Dihydro-1-[4-(2-hydroxyethyl)piperazin-1-yl]carbonylmethyl-5,9-dimethyl-2-oxo-1H-1,4-benzodiazepin-3-yl]-N′-(3-methylphenyl)urea]
melting point: 221.7 to 224.2 °C

SMILES: CC1=NC(NC(=O)Nc2cccc(C)c2)C(=O)N(CC(=O)N(CCO)CCO)c2c(C)cccc21 (racemic) [48-3(16), N-[(3RS)-2,3-Dihydro-1-(N,N-bis-(2-hydroxyethyl)amino)-carbonylmethyl-5,9-dimethyl-2-oxo-1H-1,4-benzodiazepin-3-yl]-N′-(3-methylphenyl)urea]
melting point: 160.5 to 161.1 °C

SMILES: CC(=O)c1sccc1CN1C(=O)C(NC(=O)Nc2cccc(C)c2)N=C(CCC(C)C)c2ccccc21 (racemic) [9(2), N-[(3RS)-1-(2-acetylthiophen-3-yl)methyl-2,3-dihydro-5-(3-methylbutyl)-2-oxo-1H-1,4-benzodiazepin-3-yl]-N′-(3-methylphenyl)urea]
melting point: 190 to 195 °C

SMILES: CC(=O)N(C(C)=O)c1ccccc1C(=O)CN1C(=O)C(NC(=O)Nc2cccc(-c3nnn[nH]3)c2)N=C(c2ccccc2F)c2cccc(C)c21 (racemic)
melting point: 192 to 216.6 °C (dec.)

SMILES: Cc1cccc2c1N(CCO)C(=O)C(NC(=O)Nc1cccc(-c3nnn[nH]3)c1)N=C2C1CCCCC1 (racemic) [Example 21-2, N-[(3RS)-5-Cyclohexyl-2,3-dihydro-1-(2-hydroxyethyl)-9-methyl-2-oxo-1H-1,4-benzodiazepin-3-yl]-N′-[3-(tetrazol-5-yl)phenyl]urea]
melting point: 223.5 to 224.2 °C

SMILES: Cc1cccc(NC(=O)NC2N=C(CCC(C)C)c3ccccc3N(Cc3ncccc3C)C2=O)c1 (racemic) [9(1), N-[(3RS)-2,3-dihydro-5-(3-methylbutyl)-1-(3-methylpyridin-2-yl)methyl-2-oxo-1H-1,4-benzodiazepin-3-yl]-N′-(3-methylphenyl)urea]
melting point: 151 to 154 °C

SMILES: Cc1cccc(NC(=O)NC2N=C(CO)c3cccc(C)c3N(CC(=O)N3CCCCCCC3)C2=O)c1 (racemic) [Example 71-2, N-[(3RS)-1-(Azacyclooctan-1-yl)carbonylmethyl-2,3-dihydro-5-hydroxymethyl-9-methyl-2-oxo-1H-1,4-benzodiazepin-3-yl]-N′-(3-methylphenyl)urea]
melting point: 214.5 to 216 °C

SMILES: Cc1cccc(NC(=O)NC2N=C(C3CCCCC3)c3cccc(C)c3N(C)C2=O)c1 (racemic)
melting point: 196.4 to 197.5 °C

Next, values leading:

melting point: 160.4 to 180.7 °C (dec.)
SMILES: Cc1cccc2c1N(CC(=O)C(C)(C)C)C(=O)C(NC(=O)Nc1cccc(-c3nnn[nH]3)c1)N=C2c1ccccc1F (racemic)

melting point: 132 to 135 °C
SMILES: CC(C)C1=NC(NC(=O)Nc2ccccc2)C(=O)N(CC(=O)N2CC3CCC(CC3)C2)c2ccccc21 (racemic)

melting point: 199.1 to 207.8 °C
SMILES: CC(=NO)c1cccc(NC(=O)NC2N=C(c3ccccc3F)c3cccc(C)c3N(CC(=O)N3CC4CCC(CC4)C3)C2=O)c1 (racemic)

melting point: 178.1 to 182.1 °C
SMILES: COCC1=NC(NC(=O)Nc2cccc(C)c2)C(=O)N(CC(=O)N2CC3CCC(CC3)C2)c2c(C)cccc21 (racemic)

melting point: 190.2 to 196.2 °C
SMILES: Cc1cccc(NC(=O)NC2N=C(c3ccccc3F)c3cccc(C)c3N(CC(=O)c3ccccc3C)C2=O)c1 (racemic)

melting point: 236.8 to 242.1 °C
SMILES: Cc1cccc2c1N(CC(=O)N1CC3CCC(CC3)C1)C(=O)C(NC(=O)Nc1cccc(C=O)c1)N=C2c1ccccc1F (racemic)

melting point: > 250 °C
SMILES: Cc1cccc2c1N(CC(=O)N1CC3CCC(CC3)C1)CC(NC(=O)Nc1cccc(Br)c1)N=C2c1ccccc1F (racemic)

melting point: 164 to 166 °C
SMILES: Cc1cccc(NC(=O)NC2N=C(CC3CCCCC3)c3ccccc3N(CC(=O)N3CC4CCC(CC4)C3)C2=O)c1 (racemic)

melting point: 237.2 to 238.5 °C
SMILES: CSc1cccc(NC(=O)NC2N=C(C)c3cccc(C)c3N(CC(=O)N3CC4CCC(CC4)C3)C2=O)c1 (racemic)

melting point: 130.1 to 133 °C
SMILES: CCC1=NC(NC(=O)Nc2cccc(C)c2)C(=O)N(CC(=O)N2CC3CCC(CC3)C2)c2c(C)cccc21 (racemic)

melting point: 133 to 134.5 °C
SMILES: CC(=O)OCC1=NC(NC(=O)Nc2cccc(C)c2)C(=O)N(CC(=O)N2CC3CCC(CC3)C2)c2c(C)cccc21 (racemic)

melting point: 186.2 to 197.6 °C
SMILES: Cc1cccc2c1N(CC(=O)N1CC3CCC(CC3)C1)C(=O)C(NC(=O)Nc1cccc(-c3nnn[nH]3)c1)N=C2C1CCCCC1 (racemic)

melting point: 150 to 153 °C
SMILES: CC1=NC(NC(=O)Nc2cccc(C)c2)C(=O)N(CC(=O)N2CC3CCC(CC3)C2)c2ccccc21 (racemic)

melting point: 163.2 to 164.9 °C
SMILES: CC1=NC(NC(=O)Nc2cccc(C)c2)C(=O)N(CC(=O)N2CCC(O)(c3ccccc3)CC2)c2c(C)cccc21 (racemic) [48-3(6), N-[(3RS)-1-(4-Hydroxy-4-phenylpiperidin-1-yl)carbonylmethyl-5,9-dimethyl-2,3-dihydro-2-oxo-1H-1,4-benzodiazepin-3-yl]-N′-(3-methylphenyl)urea]

melting point: 168.1 to 171.1 °C
SMILES: CC1=NC(NC(=O)Nc2cccc(Br)c2)C(=O)N(CC(=O)N2CC3CCC(CC3)C2)c2c(C)cccc21 (racemic)

melting point: 181.2 to 185.1 °C
SMILES: CC1=NC(NC(=O)Nc2cccc(Cl)c2)C(=O)N(CC(=O)N2CC3CCC(CC3)C2)c2c(C)cccc21 (racemic)

melting point: 169.6 to 170.7 °C
SMILES: COc1cccc(NC(=O)NC2N=C(C)c3cccc(C)c3N(CC(=O)N3CC4CCC(CC4)C3)C2=O)c1 (racemic)
